According to ChEMBL document CHEMBL3301361, “Experimental in vitro DMPK and physicochemical data on a set of publicly disclosed compounds”:
In brackets after ≈: the same amount, converted by molar mass.

How the values were obtained:
physchem [1] = assay: physchem
physchem [2] = assay: physchem; remark: listed apart in the source
physchem [3] = conditions: octan-1-ol/water
physchem [4] = conditions: pH 7.4 buffer
in vitro [5] = conditions: human, plasma
in vitro [6] = conditions: SD, HW or BN, rat, plasma
in vitro [7] = conditions: Dunkin Hartley, guinea pig, plasma
in vitro [8] = conditions: human
in vitro [9] = conditions: hepatocytes
in vitro [10] = conditions: human, hepatocytes
in vitro [11] = conditions: mouse, plasma
in vitro [12] = conditions: Beagle, dog, plasma
physchem [13] = assay: physchem; remark: listed apart in the source

logD (physchem [3]; pH 7.4, LogD7.4)	fraction unbound at 5 h (in vitro [5]; PPB)	fraction unbound at 5 h (in vitro [6])	fraction unbound at 5 h (in vitro [7])	hepatocyte CLint (in vitro [9])	hepatocyte CLint (in vitro [10])	fraction unbound at 5 h (in vitro [11])	fraction unbound at 5 h (in vitro [12])	Structure (SMILES)	also measured
–	–	–	–	–	–	–	–	N=C(N)SCCc1cccc(CCSC(=N)N)c1	pKa (physchem [1]): 11; pKa (physchem [2]): 9.1
1.46	0.0039	0.0025	0.0437	18.6 µL/min/1e6 cells	4.47 µL/min/1e6 cells	–	–	CN(C)c1nc(Cc2ccc(NC(=O)c3ccc(C(F)(F)F)cc3)cc2)nc(N(C)C)c1CC(=O)O [BI-671800]	solubility thermodynamic (physchem [4]): 28.8 µM (≈ 14.4 µg/mL); microsomal CLint (in vitro [8]; liver microsomes): < 3 µL/min/mg
–	0.17	0.339	0.489	–	–	0.271	–	c1ccc([C@H]([C@@H](c2ccccc2)N2CCCC2)N2CCCC2)cc1	–
–	0.0374	0.0752	0.11	–	–	–	0.0477	O=C(N[C@@H]1COc2cccc(-c3ccc(CO)nc3)c2C1)c1ccc(OCC(F)(F)F)nc1	–
0.66	0.204	0.285	0.715	16.6 µL/min/1e6 cells	–	0.465	0.591	N#Cc1ccc2ccc(=O)n(CCN3CC[C@@H](NCc4ccc5c(n4)NC(=O)CO5)[C@@H](F)C3)c2c1	–
–	–	0.0457	0.0328	–	32.4 µL/min/1e6 cells	–	0.0313	Cc1nn(-c2ccccc2)c(N)c1-c1ccccc1	fraction unbound at 5 h (in vitro [5]): 0.013
–	0.0801	–	0.072	–	–	0.0041	–	CC#Cc1cncc(-c2ccc3c(c2)C2(N=C(C)C(N)=N2)[C@]2(CC[C@H](OC)CC2)C3)c1 (stereo partly drawn)	–
–	0.009	0.179	0.139	–	–	0.139	–	C[C@H](CN(C(=O)c1ccc(C#N)cc1)c1ccccn1)N1CCN(c2cccc3c2OCCO3)CC1 [LECOZOTAN]	–
–	0.0457	0.0418	0.271	10 µL/min/1e6 cells	< 3 µL/min/1e6 cells	–	0.0736	Cc1ccc(S(=O)(=O)Nc2c(C(=O)N[C@@H](C)C(C)(C)C)c(C)nn2C(C)C)cc1	pKa (physchem [13]): 4.5
–	0.0661	0.0736	0.0477	85 µL/min/1e6 cells	–	–	0.0179	OCc1cc(C(O)CNCCCCCCOCCCCc2ccccc2)ccc1O (stereo not drawn) [SALMETEROL]	microsomal CLint (in vitro [8]; liver microsomes): 58 µL/min/mg
1.06	–	0.134	0.107	22 µL/min/1e6 cells	< 3 µL/min/1e6 cells	–	–	O=c1[nH]c2c(O)ccc([C@@H](O)CNCCc3cccc(CNCCc4ccccc4F)c3)c2s1	microsomal CLint (in vitro [8]; liver microsomes): 17 µL/min/mg
0.77	0.289	–	0.101	–	–	–	0.0457	N#Cc1cc(F)c(Cl)cc1O[C@H](CCN)c1ccccc1	pKa (physchem [1]): 9.6; microsomal CLint (in vitro [8]; liver microsomes): < 3 µL/min/mg
1.67	–	–	0.635	–	< 3 µL/min/1e6 cells	–	–	Cc1nccn1CC1CCc2c(c3ccccc3n2C)C1=O (stereo not drawn) [ONDANSETRON]	pKa (physchem [1]): 7.73; microsomal CLint (in vitro [8]; liver microsomes): 6.46 µL/min/mg
–	0.0053	0.0033	0.013	–	–	–	0.004	O=C(CC1CCN(Cc2ccn(-c3ccc(C(F)(F)F)cn3)c2)CC1)NC(c1ccc(F)cc1)c1ccc(F)cc1	–
–	0.629	0.776	0.309	–	6.46 µL/min/1e6 cells	–	0.772	COc1ccc(CCO[C@@H]2CCCC[C@H]2N2CC[C@@H](O)C2)cc1OC [VERNAKALANT]	–
3.12	0.0067	0.0082	0.0088	85 µL/min/1e6 cells	14.8 µL/min/1e6 cells	–	–	O=c1[nH]c2c(O)ccc([C@@H](O)CNCCCSCCOCCc3cccc4ccccc34)c2s1	microsomal CLint (in vitro [8]; liver microsomes): 70 µL/min/mg
2.4	–	–	–	–	–	–	–	Cc1nc2ccc(Oc3ccc(F)cc3)cc2c(=O)n1C[C@H]1CCCN(C(C)C)C1	pKa (physchem [2]): 2.65

logD (physchem [3]; pH 7.4, LogD7.4)	fraction unbound at 5 h (in vitro [5]; PPB)	fraction unbound at 5 h (in vitro [6])	fraction unbound at 5 h (in vitro [7])	hepatocyte CLint (in vitro [9])	hepatocyte CLint (in vitro [10])	fraction unbound at 5 h (in vitro [11])	fraction unbound at 5 h (in vitro [12])	Structure (SMILES)	also measured
2.1	–	0.16	0.22	–	8.91 µL/min/1e6 cells	–	0.0633	CN(C)N(C)C(=O)[C@@]1(Cc2ccccc2)CCCN(C(=O)[C@@H](Cc2c[nH]c3ccccc23)NC(=O)C(C)(C)N)C1 [ANAMORELIN]	–
2.09	0.0133	0.0082	0.035	25 µL/min/1e6 cells	40 µL/min/1e6 cells	–	–	COc1cccc2c1c(NS(=O)(=O)c1ccc(Cl)s1)nn2Cc1cccc(CNC(=O)C(C)(C)O)c1	solubility thermodynamic (physchem [4]): 81.3 µM (≈ 44.6 µg/mL); microsomal CLint (in vitro [8]; liver microsomes): 50 µL/min/mg
–	–	–	–	–	–	–	–	CC1=NC(c2cccc(-c3cncc(Cl)c3)c2)(C2CC2)N=C1N (stereo not drawn)	pKa (physchem [1]): 6.04; pKa (physchem [2]): 2.28
–	0.0066	0.0836	0.17	–	–	0.0872	0.0705	COc1ccc(CC(=O)NCc2ccccc2-c2ccccc2C(=O)NCCc2cccnc2)cc1	–
–	0.17	0.329	0.489	–	–	0.339	–	c1ccc([C@@H]([C@H](c2ccccc2)N2CCCC2)N2CCCC2)cc1	–
2.4	–	0.134	0.208	43 µL/min/1e6 cells	21.9 µL/min/1e6 cells	–	–	C[C@H](Cc1cccc(CC(=O)NC23CC4CC(CC(C4)C2)C3)c1)NC[C@H](O)c1ccc(O)c(CO)c1	microsomal CLint (in vitro [8]; liver microsomes): 129 µL/min/mg
3	0.0532	0.0705	0.17	> 150 µL/min/1e6 cells	25.9 µL/min/1e6 cells	–	–	CCCCN(CCNCCc1ccc(O)c2[nH]c(=O)sc12)C(=O)CCOCCc1ccccc1	microsomal CLint (in vitro [8]; liver microsomes): 141 µL/min/mg
–	–	0.0119	0.0081	–	–	0.0149	–	NC(=O)[C@@H](CCC(F)(F)F)N(Cc1ccc(-c2ncon2)cc1F)S(=O)(=O)c1ccc(Cl)cc1	–
–	–	0.173	0.19	–	–	–	0.197	CCCNC(c1cccnc1)P(=O)(c1ccccc1)c1ccccc1 (stereo not drawn)	–
-0.45	0.0428	0.0705	0.0928	–	–	0.208	0.03	CCS(=O)(=O)c1ccc(-c2cc(C(F)(F)F)ccc2OCC(=O)O)c(C)c1	pKa (physchem [13]): 3.2
2.35	0.0136	0.0293	0.0736	5.01 µL/min/1e6 cells	–	–	–	Cc1nn(-c2ccc(F)cc2)c(NS(=O)(=O)c2ccc(C(F)(F)F)cc2)c1C(=O)N[C@@H](C)C(C)(C)C	microsomal CLint (in vitro [8]; microsomes): 10 µL/min/mg; pKa (physchem [13]): 3.4
–	–	–	–	–	–	–	–	C#CCn1c(=O)c2c(-c3cncn3C)n(Cc3ccnc4ccc(Cl)cc34)nc2n(CC2CC2)c1=O	pKa (physchem [2]): 4.44
3.51	0.089	–	0.17	–	–	–	0.0488	O=C(c1c[nH]c(=O)c2ccccc12)N1CCC(N2CCC(Oc3ccc(Cl)c(Cl)c3)CC2)CC1	–
–	0.0171	0.0191	0.0256	18.2 µL/min/1e6 cells	–	–	0.0039	CCN(Cc1cc(C(F)(F)F)ccc1-c1cc(CC(=O)O)ccc1OC)C(=O)NCc1ccccc1 [AM-211]	solubility thermodynamic (physchem [4]): 1380 µM (≈ 691 µg/mL); microsomal CLint (in vitro [8]; microsomes): 67.6 µL/min/mg
–	0.0447	0.101	0.105	–	13.8 µL/min/1e6 cells	–	–	Cc1nn(C2CCCCC2)c(N)c1-c1ccccc1	–
–	0.0262	–	0.0854	–	–	0.0647	–	COc1ccc2c(C)cc(N[C@H]3CC[C@H](NCc4cn(C)c5cccnc45)C3)nc2c1	–
–	–	–	–	–	–	–	–	CN(C)CCC(c1ccc(Cl)cc1)c1ccccn1 (stereo not drawn) [CHLORPHENIRAMINE]	pKa (physchem [2]): 5.86

Structure (SMILES)	logD (physchem [3]; pH 7.4, LogD7.4)	fraction unbound at 5 h (in vitro [5]; PPB)	fraction unbound at 5 h (in vitro [6])	fraction unbound at 5 h (in vitro [7])	hepatocyte CLint (in vitro [9])	hepatocyte CLint (in vitro [10])	fraction unbound at 5 h (in vitro [11])	fraction unbound at 5 h (in vitro [12])	also measured
CNC(=O)CCCN(C)C(=O)c1ccc2c(c1)c1c(n2C)CC[C@@H](C2CCOCC2)C1	–	–	0.0146	0.329	–	–	–	0.258	fraction unbound at 5 h (in vitro [5]): 0.0366
C[N+]1(C)[C@@H]2C[C@@H](OC(=O)C(O)(c3cccs3)c3cccs3)C[C@H]1[C@@H]1O[C@@H]12 [TIOTROPIUM]	–	–	–	0.613	–	–	–	0.807	logD (physchem [3]; pH 7.4): -0.25
O=P(c1ccccc1)(c1ccccc1)N(Cc1ccccn1)Cc1ccccn1	–	–	–	0.569	–	–	0.0968	–	fraction unbound at 5 h (in vitro [5]): 0.0049
c1ccc([C@H]([C@@H](c2ccccc2)N2CCCCC2)N2CCCCC2)cc1	–	0.0606	0.365	0.5	12 µL/min/1e6 cells	–	0.253	0.163	microsomal CLint (in vitro [8]; liver microsomes): 13.8 µL/min/mg
CCCN(c1cccnc1)P(=O)(c1ccccc1)c1ccccc1	–	–	0.151	0.309	–	–	0.124	0.176	fraction unbound at 5 h (in vitro [5]): 0.0205
NC(=O)N1c2ccccc2C=Cc2ccccc21 [CARBAMAZEPINE]	1.65	0.294	0.266	0.24	19.9 µL/min/1e6 cells	5.25 µL/min/1e6 cells	–	0.271	solubility thermodynamic (physchem [4]): 776 µM (≈ 183 µg/mL); microsomal CLint (in vitro [8]; microsomes): 7 µL/min/mg
O=P(c1ccccc1)(c1ccccc1)N(Cc1ccccn1)c1cccnc1	–	–	0.145	0.299	–	–	0.17	0.208	fraction unbound at 5 h (in vitro [5]): 0.0234
